Among the data in patent publication US8399480B2, “Hydroxymethyl pyrrolidines as beta 3 adrenergic receptor agonists” (Merck Sharp & Dohme Corp., priority 2008, dated 2013) are EC50 values, retold here.

T1 sequence (P13945 whole entry): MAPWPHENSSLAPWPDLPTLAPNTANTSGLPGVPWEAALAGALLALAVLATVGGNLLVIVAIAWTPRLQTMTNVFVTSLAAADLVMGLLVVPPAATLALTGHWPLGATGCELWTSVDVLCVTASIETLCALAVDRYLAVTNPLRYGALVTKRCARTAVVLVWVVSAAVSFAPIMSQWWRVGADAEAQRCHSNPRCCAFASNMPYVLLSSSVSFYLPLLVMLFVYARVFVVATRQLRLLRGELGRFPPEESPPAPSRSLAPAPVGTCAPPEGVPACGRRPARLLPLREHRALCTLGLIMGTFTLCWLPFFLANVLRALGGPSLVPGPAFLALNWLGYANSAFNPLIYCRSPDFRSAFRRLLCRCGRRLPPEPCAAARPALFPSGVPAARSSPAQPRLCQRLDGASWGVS

The first experiment has as its target T1, human β3 adrenergic receptor (Homo sapiens, UniProt P13945).
T1 construct: expressed in transfected cells; host or cells: Chinese hamster ovary (CHO) cells, stably transfected
The experiment can be described thus: Functional assay: cAMP production (LANCE TR-FRET) in CHO cells stably transfected with cloned β3 adrenergic receptor. To be noted: Table 4; human β3 functional activity; read-out: Human β Binding. In kind it is cell-based. In short, it runs like this: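 Agonist-stimulated cAMP in CHO cells stably expressing human β3 receptor, 6,000 cells per well in HBSS/HEPES/0.1% BSA with 0.6 mM IBMX, 30 min at room temperature. LANCE TR-FRET readout converted to cAMP via standard curve; maximal stimulation defined with isoproterenol.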
For `O=C(Cn1cncn1)Nc1ccc(C[C@@H]2CC[C@H]([C@H](O)c3ccccc3)N2)cc1` [Example 80], the EC50 is 11 to 100 nM.

Consider `O=C(Cn1nccn1)Nc1ccc(C[C@@H]2CC[C@H]([C@H](O)c3ccccc3)N2)cc1` [Example 81], for which the EC50 lay in the range of 11 to 100 nM. For `Cc1nonc1CC(=O)Nc1ccc(C[C@@H]2CC[C@H]([C@H](O)c3ccccc3)N2)cc1` [Example 82], the EC50 lay in the range of 1 to 10 nM. On the same count and under the same terms, the same measure for `CC1=NN(CC(=O)Nc2ccc(C[C@@H]3CC[C@H]([C@H](O)c4ccccc4)N3)cc2)C(=O)C1` [Example 83]: 11 to 100 nM; for `O=C(CC1CCCNC1=O)Nc1ccc(C[C@@H]2CC[C@H]([C@H](O)c3ccccc3)N2)cc1` (some centres unmarked) [Example 85]: 101 to 1000 nM. Still for that read-out and setting: with `O=C(CN1CCCC1=O)Nc1ccc(C[C@@H]2CC[C@H]([C@H](O)c3ccccc3)N2)cc1` [Example 87] the figure was 1 to 10 nM; with `O=C(CN1CCCCC1=O)Nc1ccc(C[C@@H]2CC[C@H]([C@H](O)c3ccccc3)N2)cc1` [Example 89], 1 to 10 nM; with `O=C(CN1CCOC1=O)Nc1ccc(C[C@@H]2CC[C@H]([C@H](O)c3ccccc3)N2)cc1` [Example 90], 11 to 100 nM.

As to `O=C(CN1CCSC1=O)Nc1ccc(C[C@@H]2CC[C@H]([C@H](O)c3ccccc3)N2)cc1` [Example 91], the EC50 was in the range of 1 to 10 nM.

Turning to `O=C(Cc1cnccn1)Nc1ccc(C[C@@H]2CC[C@H]([C@H](O)c3ccccc3)N2)cc1` [Example 94], the EC50 fell in the range of 1 to 10 nM. Still for that read-out and setting: the same measure for `Cc1ccc(OCC(=O)Nc2ccc(C[C@@H]3CC[C@H]([C@H](O)c4ccccc4)N3)cc2)nn1` [Example 95]: 11 to 100 nM.

On to `Cc1nc2c(CC(=O)Nc3ccc(C[C@@H]4CC[C@H]([C@H](O)c5ccccc5)N4)cc3)cccn2n1` [Example 97], for which the EC50 fell in the range of 1000 to 3000 nM. The same measure, in the same setting: with `O=C(CN1CCCOC1=O)Nc1ccc(C[C@@H]2CC[C@H]([C@H](O)c3ccccc3)N2)cc1` [Example 98] the figure was 1 to 10 nM; with `CN1CCCN(CC(=O)Nc2ccc(C[C@@H]3CC[C@H]([C@H](O)c4ccccc4)N3)cc2)C1=O` [Example 99], 11 to 100 nM.

The same experiment, now with this note: Table 5; read-out: Human β3 Functional.
Turning to `C[C@@H](C(=O)Nc1ccc(C[C@@H]2CC[C@H]([C@H](O)c3ccccc3)N2)cc1)c1csc(N)n1` [Example 104], the EC50 is less than 1 nM. The same measure, in the same setting: the same measure for `C[C@H](C(=O)Nc1ccc(C[C@@H]2CC[C@H]([C@H](O)c3ccccc3)N2)cc1)c1csc(N)n1` [Example 105]: less than 1 nM. On the same count and under the same terms, the same measure for `O=C(Nc1ccc(CC2CCC(C(O)c3ccccc3)N2)cc1)C1Cc2ccccc2C1` (centres unmarked) [Example 106]: 11 to 100 nM. Consider `Nc1nc(C(CCF)C(=O)Nc2ccc(CC3CCC(C(O)c4ccccc4)N3)cc2)cs1` (centres unmarked) [Example 222], for which the EC50 is less than 1 nM.

Still in this experiment, the particulars now being: Table 7; β3AR-cAMP; read-out: Human β3 Functional.
In the case of `O=S(=O)(Nc1ccc(C[C@@H]2CC[C@H]([C@H](O)c3ccccc3)N2)cc1)c1cccc2ccccc12` [Example 235], the EC50 lay within 101 to 1000 nM.

Regarding `O=S(=O)(Nc1ccc(C[C@@H]2CC[C@H]([C@H](O)c3ccccc3)N2)cc1)c1cccc2ccncc12` [Example 236], the EC50 was in the range of 1000 to 3000 nM. As for `O=S(=O)(Nc1ccc(C[C@@H]2CC[C@H]([C@H](O)c3ccccc3)N2)cc1)c1cccc2cccnc12` [Example 237], the EC50 is 101 to 1000 nM. With `O=S(=O)(Nc1ccc(C[C@@H]2CC[C@H]([C@H](O)c3ccccc3)N2)cc1)c1cccc2ncccc12` [Example 238], the EC50 is 101 to 1000 nM. `O=S(=O)(Nc1ccc(C[C@@H]2CC[C@H]([C@H](O)c3ccccc3)N2)cc1)c1ccc2ncsc2c1` [Example 239]: the EC50 lay within 11 to 100 nM. Same read-out and setting: with `O=S(=O)(Nc1ccc(C[C@@H]2CC[C@H]([C@H](O)c3ccccc3)N2)cc1)c1ccc(-n2cccn2)cc1` [Example 240] the figure was 101 to 1000 nM; with `O=S(=O)(Nc1ccc(C[C@@H]2CC[C@H]([C@H](O)c3ccccc3)N2)cc1)c1ccc(-c2cocn2)cc1` [Example 241], 11 to 100 nM. Still for that read-out and setting: with `Cc1nnc(-c2cccc(S(=O)(=O)Nc3ccc(C[C@@H]4CC[C@H]([C@H](O)c5ccccc5)N4)cc3)c2)o1` [Example 242] the figure was 101 to 1000 nM; with `Cc1nccc(-c2cccc(S(=O)(=O)Nc3ccc(C[C@@H]4CC[C@H]([C@H](O)c5ccccc5)N4)cc3)c2)n1` [Example 243], 101 to 1000 nM; with `Cn1cnc(S(=O)(=O)Nc2ccc(C[C@@H]3CC[C@H]([C@H](O)c4ccccc4)N3)cc2)c1` [Example 246], 101 to 1000 nM.

`Cc1nn(C)c(Cl)c1S(=O)(=O)Nc1ccc(C[C@@H]2CC[C@H]([C@H](O)c3ccccc3)N2)cc1` [Example 247]: the EC50 lay within 1000 to 3000 nM.

Regarding `O=S(=O)(Cc1ccccn1)Nc1ccc(C[C@@H]2CC[C@H]([C@H](O)c3ccccc3)N2)cc1` [Example 248], the EC50 was in the range of 101 to 1000 nM.

As for `O=S(=O)(Cc1cccnc1)Nc1ccc(C[C@@H]2CC[C@H]([C@H](O)c3ccccc3)N2)cc1` [Example 249], the EC50 was 1000 to 3000 nM.

As for `O=S(=O)(Cc1ccncc1)Nc1ccc(C[C@@H]2CC[C@H]([C@H](O)c3ccccc3)N2)cc1` [Example 250], the EC50 was in the range of 101 to 1000 nM.

Staying with this experiment, now noted: Table 8; read-out: Human β3 Functional.
For `CC(NC(=O)Nc1ccc(C[C@@H]2CC[C@H]([C@H](O)c3ccccc3)N2)cc1)c1cscn1` (some centres unmarked) [Example 252], the EC50 lay in the range of 101 to 1000 nM.

`CN(Cc1cscn1)C(=O)Nc1ccc(C[C@@H]2CC[C@H]([C@H](O)c3ccccc3)N2)cc1` [Example 253]: the EC50 was 11 to 100 nM.

In the case of `O=C(NCc1ccccc1F)Nc1ccc(C[C@@H]2CC[C@H]([C@H](O)c3ccccc3)N2)cc1` [Example 254], the EC50 fell in the range of 101 to 1000 nM. The same measure, in the same setting: the same measure for `O=C(NCc1nnc(-c2ccccc2)[nH]1)Nc1ccc(C[C@@H]2CC[C@H]([C@H](O)c3ccccc3)N2)cc1` [Example 255]: 1 to 10 nM; for `Cc1cc(C)nc(CNC(=O)Nc2ccc(C[C@@H]3CC[C@H]([C@H](O)c4ccccc4)N3)cc2)n1` [Example 256]: 11 to 100 nM. Consider `O=C(Nc1ccc(C[C@@H]2CC[C@H]([C@H](O)c3ccccc3)N2)cc1)N1CCc2cccnc21` [Example 257], for which the EC50 fell in the range of 101 to 1000 nM.

For the compound `O=C(Nc1ccc(C[C@@H]2CC[C@H]([C@H](O)c3ccccc3)N2)cc1)N1CCC2(CCOC2=O)CC1` [Example 258], the EC50 fell in the range of 101 to 1000 nM. Still for that read-out and setting: the same measure for `O=C1OC2(CCN(C(=O)Nc3ccc(C[C@@H]4CC[C@H]([C@H](O)c5ccccc5)N4)cc3)CC2)c2cnccc21` [Example 259]: 101 to 1000 nM.

Still in this experiment, the particulars now being: Table 9; read-out: Human β^3 Functional.
Turning to `CC(C(=O)Nc1ccc(C[C@@H]2CC[C@H]([C@H](O)c3ccccc3)N2)cc1)N(C)C(=O)c1ccccn1` (some centres unmarked) [Example 265], the EC50 was in the range of 101 to 1000 nM. The same measure, in the same setting: with `CC(NC(=O)c1c(F)cccc1F)C(=O)Nc1ccc(C[C@@H]2CC[C@H]([C@H](O)c3ccccc3)N2)cc1` (some centres unmarked) [Example 267] the figure was less than 1 nM; with `CC(NC(=O)c1ncccn1)C(=O)Nc1ccc(C[C@@H]2CC[C@H]([C@H](O)c3ccccc3)N2)cc1` (some centres unmarked) [Example 268], less than 1 nM; with `CC(NC(=O)c1cnccn1)C(=O)Nc1ccc(C[C@@H]2CC[C@H]([C@H](O)c3ccccc3)N2)cc1` (some centres unmarked) [Example 269], 1 to 10 nM. Regarding `CC(N)C(=O)Nc1ccc(C[C@@H]2CC[C@H]([C@H](O)c3ccccc3)N2)cc1` (some centres unmarked) [Example 270], the EC50 fell in the range of 11 to 100 nM.

On to `CC(NC(=O)c1cc[nH]n1)C(=O)Nc1ccc(C[C@@H]2CC[C@H]([C@H](O)c3ccccc3)N2)cc1` (some centres unmarked) [Example 271], for which the EC50 is less than 1 nM.

Turning to `CC(NC(=O)c1ccccc1)C(=O)Nc1ccc(C[C@@H]2CC[C@H]([C@H](O)c3ccccc3)N2)cc1` (some centres unmarked) [Example 272], the EC50 is less than 1 nM. For `CC(NS(=O)(=O)Cc1ccccc1)C(=O)Nc1ccc(C[C@@H]2CC[C@H]([C@H](O)c3ccccc3)N2)cc1` (some centres unmarked) [Example 273], the EC50 was in the range of 11 to 100 nM.

The same experiment, now with this note: Table 10; β3AR-cAMP; read-out: Human β3 Functional.
As for `O=C(Nc1ccc(C[C@@H]2CC[C@H]([C@H](O)c3cccc(F)c3)N2)cc1)[C@H]1CCc2scnc21` [Example 278], the EC50 lay in the range of 11 to 100 nM. In the case of `O=C(Nc1ccc(CC2CCC(C(O)c3cccc(F)c3)N2)cc1)C1CCc2scnc21` (centres unmarked) [Example 279], the EC50 is less than 1 nM.

On to `Cc1nnc(CC(=O)Nc2ccc(C[C@@H]3CC[C@H]([C@H](O)c4cccc(F)c4)N3)cc2)[nH]1` [Example 280], for which the EC50 lay within 1 to 10 nM.

For `O=C(Cn1ncccc1=O)Nc1ccc(C[C@@H]2CC[C@H]([C@H](O)c3cccc(F)c3)N2)cc1` [Example 281], the EC50 lay within 1 to 10 nM.

The same experiment, now with this note: given as a range; cAMP, CHO cells; read-out: human β3 functional activity.
Turning to `O=S(=O)(Nc1ccc(C[C@@H]2CC[C@H]([C@H](O)c3ccccc3)N2)cc1)c1ccc(-c2nc(-c3ccc(C(F)(F)F)cc3)cs2)cc1` [Example 233, N-[4-({(2S,5R)-5-[(R)-hydroxy(phenyl)methyl]pyrrolidin-2-yl}methyl)phenyl]-4-{4-[4-(trifluoromethyl)phenyl]-1,3-thiazol-2-yl}benzenesulfonamide], the EC50 lay within 1 to 10 nM. As to `COc1cccc(NC(=O)Nc2ccc(C[C@@H]3CC[C@H]([C@H](O)c4ccccc4)N3)cc2)c1` [Example 251, N-[4-({(2S,5R)-5-[(R)-hydroxy(phenyl)methyl]pyrrolidin-2-yl}methyl)phenyl]-N′-(3-methoxyphenyl)urea], the EC50 lay in the range of 11 to 100 nM. Same read-out and setting: with `C[C@H](NC(=O)c1ccccc1F)C(=O)Nc1ccc(C[C@@H]2CC[C@H]([C@H](O)c3ccccc3)N2)cc1` [Example 263, 2-Fluoro-N-((1S)-2-{[4-({(2S,5R)-5-[(R)-hydroxy(phenyl)methyl]pyrrolidin-2-yl}methyl)phenyl]amino}-1-methyl-2-oxoethyl)benzamide] the figure was less than 1 nM. Consider `C[C@H](NS(=O)(=O)c1ccc(F)cc1)C(=O)Nc1ccc(C[C@@H]2CC[C@H]([C@H](O)c3ccccc3)N2)cc1` [Example 264, (2S)-2-{[(4-Fluorophenyl)sulfonyl]amino}-N-[4-({(2S,5R)-5-[(R)-hydroxy(phenyl)methyl]pyrrolidin-2-yl}methyl)phenyl]propanamide], for which the EC50 lay within 11 to 100 nM.
